Laboratory results as given in patent EP1538164A1, “RGD targeting moiety its production and use” (Vectron Therapeutics AG, priority 2003, dated 2005).
Positions of bridges follow the written chain, without caps; N, C: chain ends. Residues, ends and D or L forms follow the SMILES beside them.

Assays:
HUVEC [1] = assay: Competition of liposome binding by free competitors (HUVEC); set-up: species or system human
Method: Fig. 1: Binding of carboxyfluorescein-labelled RGD-10 to HUVECs. Thin line - cells without peptide, bold line - cells incubated with CF-labelled RGD-10. Fig. 2: Titration of inhibition of RGD-10 binding by peptides RGD-10 or RGD-4C analyzed by cell ELISA. Fig. 3: Structure of lipopeptides consisting of a peptide ligand with an acetylated Nterminus, the doo spacer linked to a dipalmitoyl-glycero-succinyl-lysine anchor. Fig. 4: A) Binding of RGD10 liposomes to HUVEC or B16.F10. Liposomes containing the RGD10-LP or RGD10-LP3 lipopeptide at a conc. of 0.1 mol% (thin line), 1 mol% (normal line), or 5 mol% (bold line) were analyzed for binding to HUVECs or B16.F10 (marked with 0). Binding of liposomes lacking lipopeptides is indicated as dotted line. B.) Liposomes containing the RGD10LP3 lipopeptide at a conc. of 1 mol% were analyzed for binding to MeWo or A431 cells. Dotted line = cells alone, normal line = liposomes without lipopeptide, bold line, RGD10-LP3 liposomes. Fig. 5: Competition experiments. […] Thin line = cells alone, normal line = plus peptide or 5 doo, bold line = liposomes without competitor. Fig. 6: Cell binding and internalization of RGD-10-LP3 liposomes. Fluorescence microscopy analysis of binding of RGD10-LP3 liposomes or liposomes lacking lipopeptide (untargeted liposomes) to HUVECs at 4°C or 37°C. […] Fig. 7: Pharmacokinetic analysis of liposomes containing 1 mol% LP1, 1 mol% LP3, or 0.1 mol% LP3. Fig. 8: Antitumor effects of LP3-liposomes (Dox-LP3 liposomes) loaded with doxorubicin in comparison to untargeted liposomes (Dox liposomes) or free doxorubicin analyzed in a C26 murine colon carcinoma tumor model.
(§1) Thus, binding to integrin-expressing cells is specifically mediated by the RGD peptide.

B16.F10 = assay: Competition of liposome binding by free competitors (B16.F10); set-up: species or system murine; settings: RGD10 LP1-containing liposomes
Excerpt: as §1

HUVEC [2] = assay: Direct binding of carboxyfluorescein-labelled RGD-10 to HUVEC; set-up: species or system human; settings: synthetic carboxyfluorescein-labeled RGD-10 peptide, Fig. 1
Method: Fig. 1: Binding of carboxyfluorescein-labelled RGD-10 to HUVECs. Thin line - cells without peptide, bold line - cells incubated with CF-labelled RGD-10. Fig. 2: Titration of inhibition of RGD-10 binding by peptides RGD-10 or RGD-4C analyzed by cell ELISA. Fig. 3: Structure of lipopeptides consisting of a peptide ligand with an acetylated Nterminus, the doo spacer linked to a dipalmitoyl-glycero-succinyl-lysine anchor. Fig. 4: A) Binding of RGD10 liposomes to HUVEC or B16.F10. Liposomes containing the RGD10-LP or RGD10-LP3 lipopeptide at a conc. of 0.1 mol% (thin line), 1 mol% (normal line), or 5 mol% (bold line) were analyzed for binding to HUVECs or B16.F10 (marked with 0). Binding of liposomes lacking lipopeptides is indicated as dotted line. B.) Liposomes containing the RGD10LP3 lipopeptide at a conc. of 1 mol% were analyzed for binding to MeWo or A431 cells. Dotted line = cells alone, normal line = liposomes without lipopeptide, bold line, RGD10-LP3 liposomes. Fig. 5: Competition experiments. […] Fluorescence microscopy analysis of binding of RGD10-LP3 liposomes or liposomes lacking lipopeptide (untargeted liposomes) to HUVECs at 4°C or 37°C. […] Fig. 8: Antitumor effects of LP3-liposomes (Dox-LP3 liposomes) loaded with doxorubicin in comparison to untargeted liposomes (Dox liposomes) or free doxorubicin analyzed in a C26 murine colon carcinoma tumor model. […]

HDMEC = assay: Peptide binding to HDMEC; set-up: species or system human; settings: compared with RGD-4C oxidized in two steps
Excerpt: For further analysis we selected 2C-RGD peptide RGD-10 ([…]). The RGD-10 peptide was synthesized with the sequence […], thus lacking the C-terminal aspartate residue and resulting in a neutral net charge. […] For these experiments RGD-4C was oxidized in a two-step process to obtain disulfide bonds between C1-C4 and C2-C3 described to be essential for high affinity binding (Assa-Munt, et al. (2001) Biochemistry 40: 2373-2378). Compared to RGD-4C, RGD-10 contains only 2 cysteine residues, which facilitates synthesis of oxidized peptides using a one-step oxidation reaction. Furthermore, RGD-10 contains two aromatic residues, which allows spectrophotometrical detection at 280 nm. […] Thus, RGD-10 binds with the same affinity to integrin-expressing cells as RGD-4C, however, is much simpler to produce.

[3] = tested on: integrin-expressing cells; settings: titration of competition of RGD-10 binding, cell ELISA, Fig. 2
[4] = RGD10-LP3 liposomes (1 mol% lipopeptide), 100 µM competitor, Fig. 5
[5] = RGD10 LP1-containing liposomes (Example 3)

Compound | inhibition of binding of liposomes to HUVEC (HUVEC [1]; [4]) | inhibition of binding of liposomes to HUVEC (HUVEC [1]; [5]) | inhibition of binding of liposomes to B16.F10 (B16.F10) | binding to HUVEC (HUVEC [2]) | binding strength to HDMEC (HDMEC) | IC50 [3]
C[C@H](N)C(=O)N[C@H]1CSSC[C@@H](C(=O)NCC(=O)O)NC(=O)[C@H](Cc2ccccc2)NC(=O)[C@@H]2CSSC[C@H](NC(=O)[C@H](CC(=O)O)NC1=O)C(=O)N[C@@H](CCCNC(=N)N)C(=O)NCC(=O)N[C@@H](CC(=O)O)C(=O)N2 [RGD-4C, reference compound] (H-ACDCRGDCFCG-OH; disulfide 2-10, 4-8; N-terminus and C-terminus assumed) | completely inhibited | completely inhibited | completely inhibited | – | – | –
C[C@H](NC(=O)CN)C(=O)N[C@@H](CCCNC(=N)N)C(=O)N[C@@H](Cc1ccc(O)cc1)C(=O)N[C@H]1CSSC[C@@H](C(=O)N[C@@H](Cc2ccccc2)C(=O)N[C@@H](CC(=O)O)C(=O)NCC(=O)O)NC(=O)[C@H](CC(=O)O)NC(=O)CNC(=O)[C@H](CCCNC(=N)N)NC1=O [RGD-10] (H-GARYCRGDCFDG-OH; disulfide 5-9; N-terminus and C-terminus assumed) | completely inhibited | completely inhibited | completely inhibited | Direct binding | comparable strength as RGD-4C | ~200 nM
